Reference: patent US20110319464A1, “METHODS FOR TREATING BENIGN PROSTATIC HYPERPLASIA” (KISSEI PHARMACEUTICAL CO., LTD., priority 2007, published 2011)
Read-outs that look alike come from different tables or passages of the source.

What was measured:
[1] = Pharmacokinetic Study on Silodosin (Study 98364); type: in vivo; details: human, plasma, 4 mg; for concentration at 2 h: Day 7, 2 h; for concentration at 3 h: Day 7, 3 h; for concentration at 4 h: Day 7, 4 h; for concentration at 5 h: Day 7, 5 h; for concentration at 6 h: Day 7, 6 h; for concentration at 8 h: Day 7, 8 h; for concentration at 0 h: Day 7, 0 h (t0); for concentration at 0.5 h: Day 7, 0.5 h; for concentration at 1 h: Day 7, 1 h; for concentration at 12 h: Day 7, 12 h; for concentration at 24 h: Day 7, 24 h
Text: The remaining two subjects in each dosing cohort received placebo.

symptoms of BPH [2] = test: Study A: 4 mg Silodosin Twice Daily (KMD-202), Japanese Phase 2 Study; type: in vivo, human; details: 4 mg twice daily
Text: Patients were males who were at least 50 years of age and who had at least two of the following three variables classified as moderate, or at least one variable classified as severe: IPSS/AUASS, Qmax and QoL. In addition, the results for IPSS/AUASS for studies A, B, D and E are illustrated in FIGS. 3 to 6, respectively, and the results for Qmax for studies A, B, D and E are illustrated in FIGS. 7 to 10, respectively.

symptoms of BPH [3] = test: Study B: 4 mg Silodosin Twice Daily (KMD-303), Japanese Phase 3 Study; type: in vivo, human; details: 4 mg twice daily
Experimental: Safety was assessed by monitoring adverse events, clinical laboratory measurements, vital signs, and physical exams. […] In addition, the results for IPSS/AUASS for studies A, B, D and E are illustrated in FIGS. 3 to 6, respectively, and the results for Qmax for studies A, B, D and E are illustrated in FIGS. 7 to 10, respectively.

symptoms of BPH [4] = test: Study D: 8 mg Silodosin Once Daily (SI04009), U.S. Phase 3 Study; type: in vivo, human; details: 8 mg once daily
Text: (§1) In addition, the results for IPSS/AUASS for studies A, B, D and E are illustrated in FIGS. 3 to 6, respectively, and the results for Qmax for studies A, B, D and E are illustrated in FIGS. 7 to 10, respectively.

[5] = system: symptoms associated with BPH; test: Efficacy Studies on Silodosin, studies A-E compared (once daily vs twice daily); type: in vivo, human; details: Tables 6 and 7
Text: as §1

[6] = system: LUTS associated with benign prostatic hyperplasia; details: 4 mg silodosin twice daily; cited from earlier work
[7] = 4 mg once daily 7 days, individual subjects, read-out: Blood Plasma Concentrations
[8] = male, 4 mg once daily 7 days, mean, read-out: Blood Plasma Concentrations
[9] = male, 4 mg twice daily 7 days (simulated from Table 1a), read-out: Estimated Blood Plasma Concentrations

Compound: C[C@H](Cc1cc2c(c(C(N)=O)c1)N(CCCO)CC2)NCCOc1ccccc1OCC(F)(F)F [Silodosin]
- concentration at 2 h [1, 7]: 35.3 ng/mL
- concentration at 3 h [1, 7]: 24.4 ng/mL
- concentration at 4 h [1, 7]: 16.6 ng/mL
- concentration at 5 h [1, 7]: 13.3 ng/mL
- concentration at 6 h [1, 7]: 8.9 ng/mL
- concentration at 8 h [1, 7]: 6.14 ng/mL
- concentration at 0 h [1, 8]: 4.63 ng/mL
- concentration at 0.5 h [1, 8]: 5.57 ng/mL
- concentration at 1 h [1, 8]: 21.2 ng/mL
- concentration at 2 h [1, 8]: 31.5 ng/mL
- concentration at 3 h [1, 8]: 18.4 ng/mL
- concentration at 4 h [1, 8]: 13 ng/mL
- concentration at 5 h [1, 8]: 10.3 ng/mL
- concentration at 6 h [1, 8]: 7.26 ng/mL
- concentration at 8 h [1, 8]: 5.45 ng/mL
- concentration at 12 h [1, 8]: 3.31 ng/mL
- concentration at 24 h [1, 8]: 2.01 ng/mL
- concentration at […] ([1]; male, 4 mg once daily 7 days, Day 7, […], mean, read-out: Blood Plasma Concentrations): 4.67 ng/mL
- concentration at 0 h [1, 9]: 4.63 ng/mL
- concentration at 0.5 h [1, 9]: 5.57 ng/mL
- concentration at 1 h [1, 9]: 21.2 ng/mL
- concentration at 2 h [1, 9]: 31.5 ng/mL
- concentration at 3 h [1, 9]: 18.4 ng/mL
- concentration at 4 h [1, 9]: 13 ng/mL
- concentration at 5 h [1, 9]: 10.3 ng/mL
- concentration at 6 h [1, 9]: 7.26 ng/mL
- concentration at 8 h [1, 9]: 5.45 ng/mL
- concentration at 12 h [1, 9]: 3.31 ng/mL
- concentration at 12.25 h ([1]; male, 4 mg twice daily 7 days (simulated from Table 1a), Day 7, 12.25 h, read-out: Estimated Blood Plasma Concentrations): 4.67 ng/mL
- concentration at 13 h ([1]; male, 4 mg twice daily 7 days (simulated from Table 1a), Day 7, 13 h, read-out: Estimated Blood Plasma Concentrations): 21.2 ng/mL
- concentration at 14 h ([1]; male, 4 mg twice daily 7 days (simulated from Table 1a), Day 7, 14 h, read-out: Estimated Blood Plasma Concentrations): 31.5 ng/mL
- concentration at 15 h ([1]; male, 4 mg twice daily 7 days (simulated from Table 1a), Day 7, 15 h, read-out: Estimated Blood Plasma Concentrations): 18.4 ng/mL
- concentration at 16 h ([1]; male, 4 mg twice daily 7 days (simulated from Table 1a), Day 7, 16 h, read-out: Estimated Blood Plasma Concentrations): 13 ng/mL
- concentration at 17 h ([1]; male, 4 mg twice daily 7 days (simulated from Table 1a), Day 7, 17 h, read-out: Estimated Blood Plasma Concentrations): 10.3 ng/mL
- concentration at 18 h ([1]; male, 4 mg twice daily 7 days (simulated from Table 1a), Day 7, 18 h, read-out: Estimated Blood Plasma Concentrations): 4.63 ng/mL
- concentration at 20 h ([1]; male, 4 mg twice daily 7 days (simulated from Table 1a), Day 7, 20 h, read-out: Estimated Blood Plasma Concentrations): 4.67 ng/mL
- concentration at 24 h [1, 9]: 5.57 ng/mL
- Incidence of Adverse Events: Dizziness (symptoms of BPH [2]): 2.2 % of patients
- Incidence of Adverse Events: Orthostatic Hypotension (symptoms of BPH [2]): 1.1 % of patients
- Incidence of Adverse Events: Syncope (symptoms of BPH [2]): 0 % of patients
- IPSS/AUASS baseline value (symptoms of BPH [2]; Week 0): 18.7
- Maximum Flow Rate baseline value (symptoms of BPH [2]; Week 0): 10.70 mL/s
- Mean Change From Baseline (CFB) in IPSS/AUASS (symptoms of BPH [2]; Week 2): −5.6
- Mean Change From Baseline (CFB) in IPSS/AUASS (symptoms of BPH [2]; Week 4): −6.6
- Mean Change From Baseline (CFB) in Maximum Flow Rate (symptoms of BPH [2]; Week 4): 1.31 mL/s
- Incidence of Adverse Events: Dizziness (symptoms of BPH [3]): 2.3 % of patients
- Incidence of Adverse Events: Orthostatic Hypotension (symptoms of BPH [3]): 3.4 % of patients
- Incidence of Adverse Events: Syncope (symptoms of BPH [3]): 0 % of patients
- IPSS/AUASS baseline value (symptoms of BPH [3]; Week 0): 17.1
- Maximum Flow Rate baseline value (symptoms of BPH [3]; Week 0): 9.89 mL/s
- Mean Change From Baseline (CFB) in IPSS/AUASS (symptoms of BPH [3]; Week 1): −3.4
- Mean Change From Baseline (CFB) in IPSS/AUASS (symptoms of BPH [3]; Week 2): −4.9
- Mean Change From Baseline (CFB) in Maximum Flow Rate (symptoms of BPH [3]; Week 2): 2.23 mL/s
- Mean Change From Baseline (CFB) in IPSS/AUASS (symptoms of BPH [3]; Week 4): −6.3
- Mean Change From Baseline (CFB) in Maximum Flow Rate (symptoms of BPH [3]; Week 4): 2.18 mL/s
- Mean Change From Baseline (CFB) in IPSS/AUASS (symptoms of BPH [3]; Week 8): −7.7
- Mean Change From Baseline (CFB) in Maximum Flow Rate (symptoms of BPH [3]; Week 8): 2.38 mL/s
- Mean Change From Baseline (CFB) in IPSS/AUASS (symptoms of BPH [3]; Week 12): −8.9
- Mean Change From Baseline (CFB) in Maximum Flow Rate (symptoms of BPH [3]; Week 12): 2.33 mL/s
- Incidence of Adverse Events: Dizziness (symptoms of BPH [4]): 2.6 % of patients
- Incidence of Adverse Events: Orthostatic Hypotension (symptoms of BPH [4]): 2.6 % of patients
- Incidence of Adverse Events: Syncope (symptoms of BPH [4]): 0 % of patients
- Mean Change From Baseline (CFB) in Maximum Flow Rate (symptoms of BPH [4]; 2-6 hrs after 1st dose): 2.7 mL/s
- IPSS/AUASS baseline value (symptoms of BPH [4]; Week 0): 21.5
- Maximum Flow Rate baseline value (symptoms of BPH [4]; Week 0): 9.0 mL/s
- Mean Change From Baseline (CFB) in IPSS/AUASS (symptoms of BPH [4]; Week 0.5): −3.9
- Mean Change From Baseline (CFB) in IPSS/AUASS (symptoms of BPH [4]; Week 1): −4.5
- Mean Change From Baseline (CFB) in Maximum Flow Rate (symptoms of BPH [4]; Week 1): 2.2 mL/s
- Mean Change From Baseline (CFB) in IPSS/AUASS (symptoms of BPH [4]; Week 2): −5.3
- Mean Change From Baseline (CFB) in Maximum Flow Rate (symptoms of BPH [4]; Week 2): 2.6 mL/s
- Mean Change From Baseline (CFB) in IPSS/AUASS (symptoms of BPH [4]; Week 4): −5.9
- Mean Change From Baseline (CFB) in Maximum Flow Rate (symptoms of BPH [4]; Week 4): 2.4 mL/s
- Mean Change From Baseline (CFB) in IPSS/AUASS (symptoms of BPH [4]; Week 12): −6.7
- Mean Change From Baseline (CFB) in Maximum Flow Rate (symptoms of BPH [4]; Week 12): 2.1 mL/s
- mean changes in IPSS/AUASS and Qmax, 8 mg once daily compared with 4 mg twice daily [5]: comparable
- efficacy in treating LUTS associated with BPH compared with 0.2 mg tamsulosin once daily [6]: comparable efficacy
